Laboratory results reported in patent US8192962B2, “Processes for detecting toxic substances” (Daikin Industries, Ltd., priority 2001, dated 2012).

Test system: Detoxification protein genes
Test: DNA chip mRNA expression in yeast, detoxification protein genes (Table 8)
Format: cell-based, Saccharomyces cerevisiae S288C
How it was run: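 Whole-genome yeast DNA chip hybridization (65° C., >12 h) of Cy-labeled cDNA from S288C cells exposed 2 h at 25° C. to a sub-lethal toxicant dose in YPD; value is intensity relative to chemical-free control.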

SMILES: CCCCCCCCCCCCOS(=O)(=O)[O-].[Na+] [(18), sodium lauryl sulfate]
- The level of expressed mRNA in the presence of chemical substance/The level of expressed mRNA in the absence of chemical substance (yeast gene YBL064C): 2.3
- The level of expressed mRNA in the presence of chemical substance/The level of expressed mRNA in the absence of chemical substance (yeast gene YBR008C): 1.2
- The level of expressed mRNA in the presence of chemical substance/The level of expressed mRNA in the absence of chemical substance (yeast gene YBR145W): 2.0
- The level of expressed mRNA in the presence of chemical substance/The level of expressed mRNA in the absence of chemical substance (yeast gene YBR244W): 1.2
- The level of expressed mRNA in the presence of chemical substance/The level of expressed mRNA in the absence of chemical substance (yeast gene YBR293W): 0.9
- The level of expressed mRNA in the presence of chemical substance/The level of expressed mRNA in the absence of chemical substance (yeast gene YCL035C): 4.2
- The level of expressed mRNA in the presence of chemical substance/The level of expressed mRNA in the absence of chemical substance (yeast gene YCL069W): 1.0
- The level of expressed mRNA in the presence of chemical substance/The level of expressed mRNA in the absence of chemical substance (yeast gene YCR083W): 1.3
- The level of expressed mRNA in the presence of chemical substance/The level of expressed mRNA in the absence of chemical substance (yeast gene YDL100C): 1.4
- The level of expressed mRNA in the presence of chemical substance/The level of expressed mRNA in the absence of chemical substance (yeast gene YDL168W): 0.8
- The level of expressed mRNA in the presence of chemical substance/The level of expressed mRNA in the absence of chemical substance (yeast gene YDR256C): 2.0
- The level of expressed mRNA in the presence of chemical substance/The level of expressed mRNA in the absence of chemical substance (yeast gene YDR453C): 1.5
- The level of expressed mRNA in the presence of chemical substance/The level of expressed mRNA in the absence of chemical substance (yeast gene YDR513W): 3.2
- The level of expressed mRNA in the presence of chemical substance/The level of expressed mRNA in the absence of chemical substance (yeast gene YDR538W): 0.9
- The level of expressed mRNA in the presence of chemical substance/The level of expressed mRNA in the absence of chemical substance (yeast gene YEL027W): 1.4
- The level of expressed mRNA in the presence of chemical substance/The level of expressed mRNA in the absence of chemical substance (yeast gene YEL065W): 0.6
- The level of expressed mRNA in the presence of chemical substance/The level of expressed mRNA in the absence of chemical substance (yeast gene YER185W): 1.1
- The level of expressed mRNA in the presence of chemical substance/The level of expressed mRNA in the absence of chemical substance (yeast gene YFL050C): 1.0
- The level of expressed mRNA in the presence of chemical substance/The level of expressed mRNA in the absence of chemical substance (yeast gene YGL013C): 1.0
- The level of expressed mRNA in the presence of chemical substance/The level of expressed mRNA in the absence of chemical substance (yeast gene YGL254W): 1.2
- The level of expressed mRNA in the presence of chemical substance/The level of expressed mRNA in the absence of chemical substance (yeast gene YGR088W): 2.0
- The level of expressed mRNA in the presence of chemical substance/The level of expressed mRNA in the absence of chemical substance (yeast gene YGR138C): 0.7
- The level of expressed mRNA in the presence of chemical substance/The level of expressed mRNA in the absence of chemical substance (yeast gene YGR197C): 1.9
- The level of expressed mRNA in the presence of chemical substance/The level of expressed mRNA in the absence of chemical substance (yeast gene YGR209C): 2.4
- The level of expressed mRNA in the presence of chemical substance/The level of expressed mRNA in the absence of chemical substance (yeast gene YGR224W): 1.3
- The level of expressed mRNA in the presence of chemical substance/The level of expressed mRNA in the absence of chemical substance (yeast gene YHL040C): 1.0
- The level of expressed mRNA in the presence of chemical substance/The level of expressed mRNA in the absence of chemical substance (yeast gene YHL047C): 1.2
- The level of expressed mRNA in the presence of chemical substance/The level of expressed mRNA in the absence of chemical substance (yeast gene YHR008C): 1.0
- The level of expressed mRNA in the presence of chemical substance/The level of expressed mRNA in the absence of chemical substance (yeast gene YHR048W): 0.9
- The level of expressed mRNA in the presence of chemical substance/The level of expressed mRNA in the absence of chemical substance (yeast gene YHR053C): 0.5
- The level of expressed mRNA in the presence of chemical substance/The level of expressed mRNA in the absence of chemical substance (yeast gene YHR055C): 0.6
- The level of expressed mRNA in the presence of chemical substance/The level of expressed mRNA in the absence of chemical substance (yeast gene YIR002C): 1.2
- The level of expressed mRNA in the presence of chemical substance/The level of expressed mRNA in the absence of chemical substance (yeast gene YIR038C): 2.0
- The level of expressed mRNA in the presence of chemical substance/The level of expressed mRNA in the absence of chemical substance (yeast gene YJL101C): 1.0
- The level of expressed mRNA in the presence of chemical substance/The level of expressed mRNA in the absence of chemical substance (yeast gene YJR104C): 1.1
- The level of expressed mRNA in the presence of chemical substance/The level of expressed mRNA in the absence of chemical substance (yeast gene YKL026C): 3.3
- The level of expressed mRNA in the presence of chemical substance/The level of expressed mRNA in the absence of chemical substance (yeast gene YKL064W): 1.3
- The level of expressed mRNA in the presence of chemical substance/The level of expressed mRNA in the absence of chemical substance (yeast gene YKR066C): 1.1
- The level of expressed mRNA in the presence of chemical substance/The level of expressed mRNA in the absence of chemical substance (yeast gene YKR105C): 1.0
- The level of expressed mRNA in the presence of chemical substance/The level of expressed mRNA in the absence of chemical substance (yeast gene YKR106W): 0.8
- The level of expressed mRNA in the presence of chemical substance/The level of expressed mRNA in the absence of chemical substance (yeast gene YLL028W): 1.2
- The level of expressed mRNA in the presence of chemical substance/The level of expressed mRNA in the absence of chemical substance (yeast gene YLL057C): 1.3
- The level of expressed mRNA in the presence of chemical substance/The level of expressed mRNA in the absence of chemical substance (yeast gene YLL060C): 2.3
- The level of expressed mRNA in the presence of chemical substance/The level of expressed mRNA in the absence of chemical substance (yeast gene YLR043C): 2.2
- The level of expressed mRNA in the presence of chemical substance/The level of expressed mRNA in the absence of chemical substance (yeast gene YLR046C): 5.4
- The level of expressed mRNA in the presence of chemical substance/The level of expressed mRNA in the absence of chemical substance (yeast gene YML028W): 1.5
- The level of expressed mRNA in the presence of chemical substance/The level of expressed mRNA in the absence of chemical substance (yeast gene YML116W): 1.0
- The level of expressed mRNA in the presence of chemical substance/The level of expressed mRNA in the absence of chemical substance (yeast gene YMR015C): 1.0
- The level of expressed mRNA in the presence of chemical substance/The level of expressed mRNA in the absence of chemical substance (yeast gene YMR038C): 1.3
- The level of expressed mRNA in the presence of chemical substance/The level of expressed mRNA in the absence of chemical substance (yeast gene YNL239W): 1.4
- The level of expressed mRNA in the presence of chemical substance/The level of expressed mRNA in the absence of chemical substance (yeast gene YNL241C): 1.0
- The level of expressed mRNA in the presence of chemical substance/The level of expressed mRNA in the absence of chemical substance (yeast gene YNL259C): 2.4
- The level of expressed mRNA in the presence of chemical substance/The level of expressed mRNA in the absence of chemical substance (yeast gene YOL158C): 1.7
- The level of expressed mRNA in the presence of chemical substance/The level of expressed mRNA in the absence of chemical substance (yeast gene YOR031W): 2.4
- The level of expressed mRNA in the presence of chemical substance/The level of expressed mRNA in the absence of chemical substance (yeast gene YOR153W): 3.1
- The level of expressed mRNA in the presence of chemical substance/The level of expressed mRNA in the absence of chemical substance (yeast gene YOR247W): 0.9
- The level of expressed mRNA in the presence of chemical substance/The level of expressed mRNA in the absence of chemical substance (yeast gene YOR251C): 1.3
- The level of expressed mRNA in the presence of chemical substance/The level of expressed mRNA in the absence of chemical substance (yeast gene YOR273C): 3.1
- The level of expressed mRNA in the presence of chemical substance/The level of expressed mRNA in the absence of chemical substance (yeast gene YPL163C): 1.4
- The level of expressed mRNA in the presence of chemical substance/The level of expressed mRNA in the absence of chemical substance (yeast gene YPR200C): 1.0
